Data: publication PMC5564600 (Oncotarget, 2017)
Read-outs that look alike come from different tables or passages of the source.

What was measured:
Experiment in all cases: biochemical
Assay type in all cases: binding
panel of 442 kinases [1] = target: T1, panel of 442 kinases (Homo sapiens, UniProt Q15349)
T1 construct: purchased Ambit Biosciences (scanMAXX KINOMEscan)

panel of 442 kinases [2] = target: T2, panel of 442 kinases (Homo sapiens, UniProt Q13557); details: CAMK2D; for remaining activity at 1 µM: read-out: % of control at 1 µM
T2 construct: purchased Ambit Biosciences (scanMAXX KINOMEscan)
T2 sequence (Q13557 whole entry): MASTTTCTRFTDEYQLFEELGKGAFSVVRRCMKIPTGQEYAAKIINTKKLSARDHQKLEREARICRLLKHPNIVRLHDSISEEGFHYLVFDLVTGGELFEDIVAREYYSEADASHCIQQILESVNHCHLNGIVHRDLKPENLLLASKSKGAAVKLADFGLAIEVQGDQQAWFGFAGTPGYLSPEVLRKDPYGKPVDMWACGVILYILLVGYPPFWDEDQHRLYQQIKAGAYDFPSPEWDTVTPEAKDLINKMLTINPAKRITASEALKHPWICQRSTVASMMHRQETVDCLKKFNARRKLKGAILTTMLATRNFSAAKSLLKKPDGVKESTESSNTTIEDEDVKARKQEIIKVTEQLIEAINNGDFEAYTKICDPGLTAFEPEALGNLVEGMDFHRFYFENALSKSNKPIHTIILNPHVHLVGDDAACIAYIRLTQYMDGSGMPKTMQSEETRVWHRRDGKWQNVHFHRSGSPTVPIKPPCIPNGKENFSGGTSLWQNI

panel of 442 kinases [3] = target: T3, panel of 442 kinases (Homo sapiens, UniProt O15264); details: kinase p38-delta; for remaining activity at 1 µM: read-out: % of control at 1 µM
T3 construct: purchased Ambit Biosciences (scanMAXX KINOMEscan)
T3 sequence (O15264 1-365): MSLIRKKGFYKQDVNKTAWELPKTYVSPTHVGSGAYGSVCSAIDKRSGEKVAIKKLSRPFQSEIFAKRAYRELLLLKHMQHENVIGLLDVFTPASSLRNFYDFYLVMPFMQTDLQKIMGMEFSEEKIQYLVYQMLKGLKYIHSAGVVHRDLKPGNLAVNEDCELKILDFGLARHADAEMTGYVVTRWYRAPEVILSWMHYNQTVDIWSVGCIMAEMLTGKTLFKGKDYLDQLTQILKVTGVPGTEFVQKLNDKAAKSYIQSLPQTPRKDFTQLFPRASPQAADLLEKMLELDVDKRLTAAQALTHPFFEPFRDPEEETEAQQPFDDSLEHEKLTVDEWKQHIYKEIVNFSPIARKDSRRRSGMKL

panel of 442 kinases [4] = target: T4, panel of 442 kinases (Homo sapiens, UniProt Q9UPZ9); details: kinase ICK; for remaining activity at 1 µM: read-out: % of control at 1 µM
T4 construct: purchased Ambit Biosciences (scanMAXX KINOMEscan)
T4 sequence (Q9UPZ9 1-632): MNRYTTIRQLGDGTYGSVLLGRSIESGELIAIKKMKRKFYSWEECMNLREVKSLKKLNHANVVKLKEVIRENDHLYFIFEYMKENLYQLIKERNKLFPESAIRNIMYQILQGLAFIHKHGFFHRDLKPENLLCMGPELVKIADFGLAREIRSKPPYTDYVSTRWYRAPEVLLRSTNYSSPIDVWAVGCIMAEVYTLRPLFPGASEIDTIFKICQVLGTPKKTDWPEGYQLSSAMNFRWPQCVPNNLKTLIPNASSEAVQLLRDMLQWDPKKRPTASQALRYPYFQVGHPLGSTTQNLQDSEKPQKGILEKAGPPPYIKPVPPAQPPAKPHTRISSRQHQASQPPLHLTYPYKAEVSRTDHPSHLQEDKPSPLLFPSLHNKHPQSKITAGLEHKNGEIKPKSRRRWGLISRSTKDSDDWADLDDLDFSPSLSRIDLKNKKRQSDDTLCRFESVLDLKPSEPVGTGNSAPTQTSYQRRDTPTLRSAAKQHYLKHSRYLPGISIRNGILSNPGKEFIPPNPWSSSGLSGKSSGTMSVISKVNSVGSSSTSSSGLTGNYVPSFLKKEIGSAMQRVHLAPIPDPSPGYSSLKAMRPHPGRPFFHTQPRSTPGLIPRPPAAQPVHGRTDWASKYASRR

panel of 442 kinases [5] = target: T5, panel of 442 kinases (Homo sapiens, UniProt Q9NRM7); details: kinase LATS2; for remaining activity at 1 µM: read-out: % of control at 1 µM
T5 construct: purchased Ambit Biosciences (scanMAXX KINOMEscan)
T5 sequence (Q9NRM7 1-1088): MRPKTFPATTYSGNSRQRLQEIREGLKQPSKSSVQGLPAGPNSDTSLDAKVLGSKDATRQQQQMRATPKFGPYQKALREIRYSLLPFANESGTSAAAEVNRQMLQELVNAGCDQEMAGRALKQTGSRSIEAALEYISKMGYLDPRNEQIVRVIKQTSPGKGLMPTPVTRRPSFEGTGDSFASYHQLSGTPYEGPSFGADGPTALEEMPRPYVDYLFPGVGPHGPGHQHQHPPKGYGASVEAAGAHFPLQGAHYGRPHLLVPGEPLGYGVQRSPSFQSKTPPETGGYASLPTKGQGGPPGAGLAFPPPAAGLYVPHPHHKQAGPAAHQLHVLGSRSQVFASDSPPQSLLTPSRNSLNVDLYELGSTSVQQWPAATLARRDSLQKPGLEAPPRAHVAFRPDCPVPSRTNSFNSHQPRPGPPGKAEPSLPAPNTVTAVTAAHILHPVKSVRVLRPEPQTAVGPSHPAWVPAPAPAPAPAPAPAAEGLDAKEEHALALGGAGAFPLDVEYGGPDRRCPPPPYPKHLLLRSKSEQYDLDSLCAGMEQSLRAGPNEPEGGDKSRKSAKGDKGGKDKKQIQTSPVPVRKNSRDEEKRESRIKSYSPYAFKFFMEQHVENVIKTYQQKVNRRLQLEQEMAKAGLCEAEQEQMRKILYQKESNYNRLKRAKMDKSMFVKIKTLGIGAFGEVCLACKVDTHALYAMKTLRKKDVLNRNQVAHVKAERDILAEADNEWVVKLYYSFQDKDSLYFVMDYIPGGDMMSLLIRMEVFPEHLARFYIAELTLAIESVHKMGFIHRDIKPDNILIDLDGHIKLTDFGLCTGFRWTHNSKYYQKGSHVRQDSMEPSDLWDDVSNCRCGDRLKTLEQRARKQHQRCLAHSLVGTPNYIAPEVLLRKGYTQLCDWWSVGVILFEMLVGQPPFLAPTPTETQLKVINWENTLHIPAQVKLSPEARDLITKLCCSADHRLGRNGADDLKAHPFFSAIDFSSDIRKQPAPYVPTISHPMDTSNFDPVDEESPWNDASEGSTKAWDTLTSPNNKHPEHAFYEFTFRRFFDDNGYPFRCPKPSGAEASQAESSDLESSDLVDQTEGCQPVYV

[6] = kinase RSK3(Kin.Dom.1-N-terminal), read-out: RSK3(Kin.Dom.1-N-terminal) (% of control at 1 µM)
[7] = kinase RSK3(Kin.Dom.2-C-terminal), read-out: RSK3(Kin.Dom.2-C-terminal) (% of control at 1 µM)
[8] = 10 µM, read-out: % of control at 10 µM

T1 sequence (Q15349 whole entry): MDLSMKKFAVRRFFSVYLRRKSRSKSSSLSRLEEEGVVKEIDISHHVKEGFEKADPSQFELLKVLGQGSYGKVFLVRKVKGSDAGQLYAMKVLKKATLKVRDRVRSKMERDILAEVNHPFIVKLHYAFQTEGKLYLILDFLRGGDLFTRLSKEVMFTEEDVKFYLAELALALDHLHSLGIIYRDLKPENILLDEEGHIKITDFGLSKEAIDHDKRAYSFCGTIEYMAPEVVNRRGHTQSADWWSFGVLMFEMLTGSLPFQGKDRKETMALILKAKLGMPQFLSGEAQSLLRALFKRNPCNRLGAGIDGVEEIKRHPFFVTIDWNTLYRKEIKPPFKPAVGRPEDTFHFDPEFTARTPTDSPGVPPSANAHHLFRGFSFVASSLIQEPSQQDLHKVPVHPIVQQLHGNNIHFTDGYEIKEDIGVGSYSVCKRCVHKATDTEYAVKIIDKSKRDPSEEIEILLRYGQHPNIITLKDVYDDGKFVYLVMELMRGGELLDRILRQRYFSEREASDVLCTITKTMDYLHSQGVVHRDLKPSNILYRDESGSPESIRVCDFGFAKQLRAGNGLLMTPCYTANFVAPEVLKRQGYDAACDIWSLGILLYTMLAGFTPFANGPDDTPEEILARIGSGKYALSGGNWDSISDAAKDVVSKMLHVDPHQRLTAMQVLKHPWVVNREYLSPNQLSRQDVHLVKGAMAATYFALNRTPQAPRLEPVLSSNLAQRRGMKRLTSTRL

Nc1cc(C(F)(F)F)c(-c2cc(N3CCOCC3)nc(N3CCOCC3)n2)cn1 [Buparlisib]
remaining activity at 1 µM (panel of 442 kinases [1]; [6]): 95%
remaining activity at 10 µM (panel of 442 kinases [1]; kinase RSK3(Kin.Dom.1-N-terminal), read-out: RSK3(Kin.Dom.1-N-terminal) (% of control at 10 µM)): 100%
remaining activity at 1 µM (panel of 442 kinases [1]; [7]): 100%
remaining activity at 10 µM (panel of 442 kinases [1]; kinase RSK3(Kin.Dom.2-C-terminal), read-out: RSK3(Kin.Dom.2-C-terminal) (% of control at 10 µM)): 100%
remaining activity at 1 µM (panel of 442 kinases [2]): 100%
remaining activity at 10 µM (panel of 442 kinases [2]; [8]): 100%
remaining activity at 1 µM (panel of 442 kinases [3]): 73%
remaining activity at 10 µM (panel of 442 kinases [3]; [8]): 100%
remaining activity at 1 µM (panel of 442 kinases [4]): 92%
remaining activity at 10 µM (panel of 442 kinases [4]; [8]): 100%
remaining activity at 1 µM (panel of 442 kinases [5]): 75%
remaining activity at 10 µM (panel of 442 kinases [5]; [8]): 100%

COc1ncc(-c2ccc3nccc(-c4ccnnc4)c3c2)cc1NS(=O)(=O)c1ccc(F)cc1F [Omipalisib]
remaining activity at 1 µM (panel of 442 kinases [1]; [6]): 100%
remaining activity at 1 µM (panel of 442 kinases [1]; [7]): 100%
remaining activity at 1 µM (panel of 442 kinases [2]): 100%
remaining activity at 1 µM (panel of 442 kinases [3]): 94%
remaining activity at 1 µM (panel of 442 kinases [4]): 87%
remaining activity at 1 µM (panel of 442 kinases [5]): 100%

FC(F)c1nc2ccccc2n1-c1nc(N2CCOCC2)nc(N2CCOCC2)n1 [ZSTK474, 2-(difluoromethyl)-1-[4,6-di(4-morpholinyl)-1,3,5-triazin-2-yl]-1H-benzimidazole]
remaining activity at 1 µM (panel of 442 kinases [1]; [6]): 100%
remaining activity at 1 µM (panel of 442 kinases [1]; [7]): 100%
remaining activity at 1 µM (panel of 442 kinases [2]): 88%
remaining activity at 1 µM (panel of 442 kinases [3]): 100%
remaining activity at 1 µM (panel of 442 kinases [4]): 89%
remaining activity at 1 µM (panel of 442 kinases [5]): 100%

Cn1c(=O)n(-c2ccc(C(C)(C)C#N)cc2)c2c3cc(-c4cnc5ccccc5c4)ccc3ncc21 [Dactolisib, 2-methyl-2-[4-(3-methyl-2-oxo-8-quinolin-3-yl-2,3-dihydroimidazo[4,5-c]quinolin-1-yl)-phenyl] propionitrile]
remaining activity at 1 µM (panel of 442 kinases [1]; [6]): 70%
remaining activity at 1 µM (panel of 442 kinases [1]; [7]): 75%
remaining activity at 1 µM (panel of 442 kinases [2]): 79%
remaining activity at 1 µM (panel of 442 kinases [3]): 56%
remaining activity at 1 µM (panel of 442 kinases [4]): 68%
remaining activity at 1 µM (panel of 442 kinases [5]): 100%
